Among the data in article PMC9158485, “Highly Efficient Biotransformation of Phenolic Glycosides Using a Recombinant β-Glucosidase From White Rot Fungus Trametes trogii” (Frontiers in Microbiology, 2022) are Km values, retold here.

This experiment concerns T1, TtBgl3.
T1 construct: calculated 97 kDa; primer-encoded N-terminus MSRDFL, C-terminus FTWNGV; GH3, GH3_C and Fn3-like domains
Kind of experiment: release of 4-nitrophenol at […] nm, Lineweaver-Burk. The experiment is classed as biochemical, Trametes trogii. The following applies: 50°C, pH 5.5 (methods: phosphate citrate buffer 200 mM, pH 5.0, 55°C).

Structures are written as SMILES.

Take `O=[N+]([O-])c1ccc(O[C@@H]2O[C@H](CO)[C@@H](O)[C@H](O)[C@H]2O)cc1` [4-nitrophenyl β-D-glucopyranoside]: the Km came to 550 µM.
